This note sets out measurements from PubChem BioAssay AID2286 (Southern Research Specialized Biocontainment Screening …, 2010).

The source made the active and inactive calls.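 How the source made its calls: active means minimum cell viability of 80% or lower across the dose range, counted as toxic; inactive means minimum cell viability above 80%.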

Test [1] in a line: viability loss in fusion assay cells – cell-based, MAGI and MAGI-HeLa co-culture, cytotoxicity control for HIV-1 fusion inhibitor project, dose response (AID 2286).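 On all read-outs here: cells exposed to compound for at least 64 h before ATP readout.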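 On minimum viability: 100% = median of DMSO vehicle wells with no ATP signal meaning 0%.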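 On viability: 100% = median of DMSO vehicle wells with no ATP signal meaning 0%.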 To be noted: MAGI-CCR5 cells viability, CellTiter-Glo ATP luminescence; for minimum viability: measured here: MAGI minimum viability across doses.
In test [2] the test system is MAGI-CCR5 cells viability, CellTiter-Glo ATP luminescence. The test is described as above.
Setting [3] is: MAGI-HeLa co-culture viability, at 50 µM, stronger effect = lower value.
Setting [4] is: measured here: MAGI + HeLa-R5-16 co-culture viability.
[5] abbreviates: at 1.56 µM, stronger effect = lower value.
[6] abbreviates: at 6.25 µM, stronger effect = lower value.

One may read the viability as a read-out of living cells in per cent, often relative to untreated cells. Usually CC50 stands for the concentration giving 50% cytotoxicity. `N#C/C(=C\c1ccc(O)c([N+](=O)[O-])c1)c1nc2ccccc2s1`: in test [1] (setting [3]), the viability was 41.9%. In test [1] (at 50 µM, stronger effect = lower value), the minimum viability came out at 21.9%. Further, the 50% cytotoxic concentration (CC50) was 11.7 µM in test [2] and 43.8 µM in test [2] (setting [4]).

In the case of `CN(C)S(=O)(=O)c1cccc(-c2nn(-c3ccccc3)cc2/C=C2\SC(=S)NC2=O)c1`, the viability in test [1] (setting [3]) came to 35.7%. The same molecule came in with a minimum viability in test [1] (at 50 µM, stronger effect = lower value) of 27.8%. In addition, the CC50 was 10 µM in test [2] and 25.5 µM in test [2] (setting [4]).

On to `O=[N+]([O-])c1cc(Cl)cc(/C=N/NC(=S)Nc2cc(S(=O)(=O)N3CCOCC3)ccc2Cl)c1O`, for which, in test [1] (setting [3]), the viability came to 65.7%. This molecule also had a minimum viability in test [1] (at 50 µM, stronger effect = lower value) of 34.7%. Moreover, the results for the CC50 in test [2] and in test [2] (setting [4]) were 31.1 µM and over 50 µM, respectively.

Turning to `O=C(O)CN1C(=O)/C(=C\c2cc(Br)ccc2OCc2ccc(Cl)cc2)SC1=S`, the viability in test [1] (setting [3]) is 52.4%; in test [1] (at 50 µM (top of the series)) it was 90.5% (inactive). In addition, in test [1] (at 50 µM, stronger effect = lower value), the minimum viability worked out at 90.5%. Besides, in test [2] (setting [4]), the cytotoxic concentration (CC50) stood at 48.6 µM.

As to `O=C(O)c1cccc(NC(=S)N/N=C/c2ccccc2OCc2cccc(Br)c2)c1`, the viability in test [1] (setting [3]) amounted to 28.4%. Further, the minimum viability in test [1] (at 50 µM, stronger effect = lower value) turned out to be 9.27%. The 50% cytotoxic concentration (CC50) in test [2] is 22.3 µM; in test [2] (setting [4]), 23.9 µM.

With `O=C(COc1ccc(Cl)cc1Cl)Nc1ccc(C(=O)Nc2ccccc2C(=O)O)cc1`, the viability in test [1] (setting [3]) was determined as 92.6%. Also, in test [1] (at 50 µM, stronger effect = lower value), the minimum viability was found to be 71.9%.

`N#Cc1c(-c2ccccc2)nc(SCC(=O)N2c3ccccc3Sc3ccccc32)[nH]c1=O`: the values for the viability in test [1] (setting [3]) and in test [1] (at 50 µM (top of the series)) were 103% and 85.5% (inactive), respectively. Also, the minimum viability in test [1] (setting [5]) came out at 83.6%.

For the molecule `COc1cccc(NS(=O)(=O)c2ccc3c(c2)C2C=CCC2C(c2ccc(C(=O)O)cc2)N3)c1` (stereo not drawn), the viability in test [1] (setting [3]) is 120%; in test [1] (at 50 µM (top of the series)) it was 108% (inactive). In addition, the minimum viability in test [1] (setting [5]) turned out to be 88.6%.

In the case of `COc1ccc(-c2cc(-c3ccc(Cl)cc3)c(C#N)c(SCC(=O)O)n2)cc1`, the viability in test [1] (setting [3]) was 96.4%; in test [1] (at 50 µM (top of the series)), 82.1% (inactive). For the same molecule, the minimum viability in test [1] (at 50 µM, stronger effect = lower value) turned out to be 82.1%.

`N#Cc1c(-c2ccccc2)nc(SCc2ccc(Cl)cc2)[nH]c1=O`: the viability in test [1] (setting [3]) is 113%; in test [1] (at 50 µM (top of the series)) it was 86.1% (inactive). Moreover, the minimum viability in test [1] (at 50 µM, stronger effect = lower value) worked out at 86.1%.

`Cc1c(CC(=O)O)c(=O)oc2c(C)c3occ(-c4ccc(Br)cc4)c3cc12`: the viability in test [1] (setting [3]) came out at 123%. Moreover, in test [1] (at 50 µM, stronger effect = lower value), the minimum viability turned out to be 75.8%.

For `Cc1ccc(F)c(NC(=O)/C(C#N)=C(\O)c2ccc(C(C)(C)C)cc2)c1`, the viability in test [1] (setting [3]) amounted to 101%. In addition, the minimum viability in test [1] (at 50 µM, stronger effect = lower value) is 76.4%.

Regarding `COc1ccc(NS(=O)(=O)c2ccc3c(c2)[C@H]2C=CC[C@H]2[C@@H](c2ccc(C(=O)O)cc2)N3)cc1`, the viability in test [1] (setting [3]) is 130%; in test [1] (at 50 µM (top of the series)) it was 99.7% (inactive). In addition, the minimum viability in test [1] (at 3.13 µM, stronger effect = lower value) came out at 95.3%.

In the case of `O=C1/C(=C2\C(=O)N(Cc3ccc(F)cc3)c3ccccc32)SC(=S)N1CCS(=O)(=O)O`, the values for the viability in test [1] (setting [3]) and in test [1] (at 50 µM (top of the series)) were 114% and 99.5% (inactive), respectively. The molecule further returned a minimum viability in test [1] (at 50 µM, stronger effect = lower value) of 99.5%.

Consider `COc1cccc(C2C3=C(N=c4s/c(=C\c5ccc(OCC(=O)O)cc5)c(=O)n42)c2ccccc2CC3)c1` (stereo not drawn), for which the viability in test [1] (setting [3]) is 103%; in test [1] (at 50 µM (top of the series)) it was 90.2% (inactive). In addition, the minimum viability in test [1] (at 12.5 µM, stronger effect = lower value) was found to be 85%.

On to `O=c1/c(=C\c2cc([N+](=O)[O-])cc([N+](=O)[O-])c2O)sc2nc3ccccc3n12`, for which the viability is 115% in test [1] (setting [3]) and 104% (inactive) in test [1] (at 50 µM (top of the series)). In addition, the minimum viability in test [1] (setting [6]) was found to be 97.5%.

Turning to `O=C(Nc1ccc(C(=O)O)cc1)/C(=C\C=C\c1ccccc1)NC(=O)c1cccc(Br)c1`, the viability in test [1] (setting [3]) is 85.1%; in test [1] (at 50 µM (top of the series)), 89.9% (inactive). This molecule registered a minimum viability in test [1] (setting [6]) of 83.2%.

In the case of `O=C(O)COc1ccccc1/C=N/Nc1ccc(S(=O)(=O)Nc2ccc(Cl)cc2)cc1[N+](=O)[O-]`, the viability was 103% in test [1] (setting [3]) and 99.2% (inactive) in test [1] (at 50 µM (top of the series)). This molecule also displayed a minimum viability in test [1] (at 25 µM, stronger effect = lower value) of 90.6%.

As to `Cc1ccccc1N/N=C/c1sc(=O)n(Cc2cccc(C(=O)O)c2)c1Cl`, the viability in test [1] (setting [3]) amounted to 109%. Further, the minimum viability in test [1] (at 50 µM, stronger effect = lower value) is 72.9%.

As for `COc1ccc(-c2coc3c(C)c4oc(=O)c(CCC(=O)O)c(C)c4cc23)cc1`, the viability in test [1] (setting [3]) is 91.9%. The molecule further showed a minimum viability in test [1] (at 50 µM, stronger effect = lower value) of 47.8%.

As to `O=C(CCN1C(=O)/C(=C/c2cccs2)SC1=S)Nc1ccc(C(=O)O)c(O)c1`, the viability in test [1] (setting [3]) was determined as 104%. The minimum viability in test [1] (at 50 µM, stronger effect = lower value) worked out at 66%.

Consider `N#Cc1c(-c2ccccc2)nc(SCC(=O)Nc2ccc(OC(F)(F)Cl)cc2)[nH]c1=O`, for which the viability in test [1] (setting [3]) is 102%; in test [1] (at 50 µM (top of the series)), 96.6% (inactive). For the same molecule, the minimum viability in test [1] (at 25 µM, stronger effect = lower value) was 84.9%.

Regarding `CCc1nnc(NS(=O)(=O)c2ccc(NC(=S)NC(=O)/C=C/c3ccc(C(C)C)cc3)cc2)s1`, the values for the viability in test [1] (setting [3]) and in test [1] (at 50 µM (top of the series)) were 117% and 82.2% (inactive), respectively. Also, the minimum viability in test [1] (at 50 µM, stronger effect = lower value) turned out to be 82.2%.
